Results published in ChEMBL document CHEMBL5346925, “3,4-Dihydrobenzo[e][1,2,3]oxathiazine 2,2-dioxide analogs act as potential AMPA receptor potentiators with antidepressant activity” (Eur J Med Chem, 2023).

Assays:
[1] = target: T1, Glutamate receptor ionotropic, AMPA (Rattus norvegicus) (UniProt P19491+P19492+P19493+P19490); experiment: Agonist activity at AMPA receptor in rat Primary neuron cells assessed as increase in fluorescence level at 1 uM incubated for 1 hr by calcium 2+ influx assay relative to s-AMPA coupled TAK-137; type: cell-based
[2] = target: T1, Glutamate receptor ionotropic, AMPA (Rattus norvegicus); experiment: Agonist activity at AMPA receptor in rat Primary neuron cells assessed as potentiation of s-AMPA induced calcium flux at 1 uM incubated for 1 hr by calcium 2+ influx assay relative to s-AMPA coupled TAK-137; type: cell-based
[3] = target: T1, Glutamate receptor ionotropic, AMPA (Rattus norvegicus); experiment: Agonist activity at AMPA receptor in rat Primary neuron cells relative to control; type: cell-based; conditions: filed as agonist
[4] = target: Glutamate receptor ionotropic, AMPA (Rattus norvegicus, UniProt P19490+P19491+P19492+P19493); experiment: Agonist activity at AMPA receptor in rat Primary neuron cells; type: cell-based
[5] = AUC (0 to infinity) in Sprague-Dawley rat at 3 mg/kg, po by LC-MS/MS analysis; type: ADME, organism-based; parameters: dose 3 mg/kg, route po; conditions: in vivo
[6] = Half life in Sprague-Dawley rat at 3 mg/kg, po by LC-MS/MS analysis; type: ADME, organism-based; conditions: in vivo
[7] = Cmax in Sprague-Dawley rat at 0.3 mg/kg, iv by LC-MS/MS analysis; type: ADME, organism-based; parameters: dose 0.3 mg/kg, route iv; conditions: in vivo
[8] = Tmax in Sprague-Dawley rat at 0.3 mg/kg, iv by LC-MS/MS analysis; type: ADME, organism-based; conditions: in vivo
[9] = Oral bioavailability in Sprague-Dawley rat at 3 mg/kg by LC-MS/MS analysis; type: ADME, organism-based; conditions: in vivo
[10] = AUC (0 to t) in Sprague-Dawley rat at 3 mg/kg, po by LC-MS/MS analysis; type: ADME, organism-based; parameters: dose 3 mg/kg, route po; conditions: in vivo
[11] = AUC (0 to t) in Sprague-Dawley rat at 0.3 mg/kg, iv by LC-MS/MS analysis; type: ADME, organism-based; parameters: dose 0.3 mg/kg, route iv; conditions: in vivo
[12] = MRT (0 to t) in Sprague-Dawley rat at 3 mg/kg, po by LC-MS/MS analysis; type: ADME, organism-based; conditions: in vivo
[13] = Half life in Sprague-Dawley rat at 0.3 mg/kg, iv by LC-MS/MS analysis; type: ADME, organism-based; conditions: in vivo
[14] = MRT (0 to infinity) in Sprague-Dawley rat at 3 mg/kg, po by LC-MS/MS analysis; type: ADME, organism-based; conditions: in vivo
[15] = Cmax in Sprague-Dawley rat at 3 mg/kg, po by LC-MS/MS analysis; type: ADME, organism-based; parameters: dose 3 mg/kg, route po; conditions: in vivo
[16] = AUC (0 to infinity) in Sprague-Dawley rat at 0.3 mg/kg, iv by LC-MS/MS analysis; type: ADME, organism-based; parameters: dose 0.3 mg/kg, route iv; conditions: in vivo
[17] = MRT (0 to t) in Sprague-Dawley rat at 0.3 mg/kg, iv by LC-MS/MS analysis; type: ADME, organism-based; conditions: in vivo
[18] = Volume of distribution at steady state in Sprague-Dawley rat at 0.3 mg/kg, iv by LC-MS/MS analysis; type: ADME, organism-based; conditions: in vivo, read-out: Vdss
[19] = MRT (0 to infinity) in Sprague-Dawley rat at 0.3 mg/kg, iv by LC-MS/MS analysis; type: ADME, organism-based; conditions: in vivo
[20] = Clearance in Sprague-Dawley rat at 0.3 mg/kg, iv by LC-MS/MS analysis; type: ADME, organism-based; conditions: in vivo
[21] = Tmax in Sprague-Dawley rat at 3 mg/kg, po by LC-MS/MS analysis; type: ADME, organism-based; conditions: in vivo

Row | SMILES | Activity [1] [%] | Activity [2] [%] | Activity ([2]; filed as agonist) [%] | other results
1 | O=S1(=O)NCc2cc(-c3ccc(Oc4ccccc4)cc3)ccc2O1 | 0.5 | 1.4 | – | –
2 | COc1ccccc1-c1ccc(-c2cccc3c2OS(=O)(=O)NC3C)cc1 (stereo not drawn) | 8.5 | – | 65.5 | –
3 | O=S1(=O)NCc2cccc(-c3ccc(C(F)(F)F)cc3)c2O1 | 14 | – | 81.3 | –
4 | COc1ccc(-c2ccc(-c3cccc4c3OS(=O)(=O)NC4)c(F)c2)cc1 | 3.2 | – | 67.9 | –
5 | O=S1(=O)NCc2cccc(-c3cccc(Oc4ccccc4)c3)c2O1 | 1 | 1.9 | – | –
6 | O=S1(=O)NCc2cccc(-c3ccc4c(c3)OCO4)c2O1 | 17.1 | – | 92 | –
7 | O=S1(=O)NCc2cccc(-c3ccc(-c4ccc(C(F)F)cc4)cc3)c2O1 | 7.2 | 23.9 | – | –
8 | O=S1(=O)NCc2cccc(-c3ccc(-c4ccc(C(F)(F)F)cc4)cc3)c2O1 | 0.8 | 0.7 | – | –
9 | COc1ccc(-c2cccc3c2OS(=O)(=O)NC3)cc1F | 19.2 | – | 98.4 | –
10 | CC(C)(C)c1ccc(-c2ccc(-c3cccc4c3OS(=O)(=O)NC4)cc2)cc1 | -2 | -1.3 | – | –
11 | COc1cccc(-c2ccc(-c3cccc4c3OS(=O)(=O)NC4)cc2)c1 | 2.5 | – | 56.4 | –
12 | Cc1ccc(-c2ccc(-c3cccc4c3OS(=O)(=O)NC4C)cc2)cc1 (stereo not drawn) | 0.1 | – | 55.3 | –
13 | N#Cc1ccc(-c2cccc3c2OS(=O)(=O)NC3)cc1 | 2.9 | 23.7 | – | –
14 | O=S1(=O)NCc2c(cccc2-c2ccc(Oc3ccccc3)cc2)O1 | 0.8 | 0 | – | –
15 | CC1NS(=O)(=O)Oc2c(-c3ccc(-c4cccc(F)c4)cc3)cccc21 (stereo not drawn) | 8.6 | – | 62.4 | –
16 | O=S1(=O)NCc2cccc(-c3ccc(-c4ccc(F)cc4)cc3)c2O1 | 8.1 | – | 85.3 | –
17 | O=S1(=O)NCc2ccc(-c3ccc(Oc4ccccc4)cc3)cc2O1 | 0.7 | -0.8 | – | –
18 | Cc1ccc(-c2cccc3c2OS(=O)(=O)NC3)cc1 | 7.3 | – | 81.7 | –
19 | O=S1(=O)NCc2cccc(-c3ccc(-c4ccc(F)c(F)c4)cc3)c2O1 | 2.5 | 38.7 | – | –
20 | CC(C)Oc1ccc(-c2ccc(-c3cccc4c3OS(=O)(=O)NC4)cc2)cc1 | -2.1 | 3 | – | –
21 | COc1c(C)cc(-c2cccc3c2OS(=O)(=O)NC3)cc1C | 3.1 | 2.6 | – | –
22 | O=S1(=O)NCc2cccc(-c3ccc(OC(F)(F)F)cc3)c2O1 | 1.4 | – | 72.2 | –

Row | SMILES | Activity [1] [%] | Activity [2] [%] | Activity ([2]; filed as agonist) [%] | other results
23 | O=S1(=O)NCc2cccc(-c3ccc4c(c3)OCCO4)c2O1 | 19.5 | – | 90.7 | –
24 | O=S1(=O)NCc2cccc(-c3ccc(-c4ccc(OC(F)(F)F)cc4)cc3)c2O1 | -1.5 | -3 | – | –
25 | COc1ccccc1-c1ccc(-c2cccc3c2OS(=O)(=O)NC3)cc1 | 2.1 | – | 83.8 | Emax [3]: 125%; EC50 [4]: 379 nM
26 | COc1ccc(-c2ccc(-c3cccc4c3OS(=O)(=O)NC4)cc2F)cc1 | 5.3 | – | 55.8 | –
27 | COc1ccc(-c2cccc3c2OS(=O)(=O)NC3)cc1 | 1 | – | 89.3 | Emax [3]: 99%; EC50 [4]: 555 nM
28 | COc1ccc(-c2ccc(-c3cccc4c3OS(=O)(=O)NC4C)cc2)cc1 (stereo not drawn) | 2.1 | – | 50.7 | –
29 | CC1NS(=O)(=O)Oc2c(-c3ccc(-c4ccccc4F)cc3)cccc21 (stereo not drawn) | 10.5 | – | 69.2 | –
30 | CC(C)(C)c1ccc(-c2cccc3c2OS(=O)(=O)NC3)cc1 | 29.4 | – | 106 | –
31 | COc1ccc(-c2ccc(-c3cccc4c3OS(=O)(=O)NC4)cc2)cc1 | -3.7 | – | 82.4 | Emax [3]: 79%; EC50 [4]: 1240 nM
32 | COc1cccc(-c2ccc(-c3cccc4c3OS(=O)(=O)NC4C)cc2)c1 (stereo not drawn) | 4.2 | – | 58.5 | –
33 | CC(C)Oc1ccc(-c2cccc3c2OS(=O)(=O)NC3)cc1 | 13.2 | – | 107 | –
34 | COc1ccc(-c2cccc3c2OS(=O)(=O)NC3)cc1C(F)(F)F | 1.9 | 0.6 | – | –
35 | O=S1(=O)NCc2cccc(-c3ccc(-c4ccccc4)cc3)c2O1 | 6.2 | – | 69.6 | –
36 | O=S1(=O)NCc2cccc(-c3ccc(Oc4ccccc4)cc3)c2O1 | 4.1 | – | 77.3 | AUC(0-inf) [5]: 328 ng·h/mL; half-life [6]: 3.12 h; Emax [3]: 169%; Cmax [7]: 246 ng/mL; EC50 [4]: 1630 nM; Tmax [8]: 4.8 min; bioavailability [9]: 19.8%; AUC(0-t) [10]: 265 ng·h/mL; AUC(0-t) [11]: 134 ng·h/mL; MRT last [12]: 2.63 h; half-life [13]: 1.27 h; MRT inf [14]: 4.56 h; Cmax [15]: 96.1 ng/mL; AUC(0-inf) [16]: 136 ng·h/mL; MRT last [17]: 0.7 h; Vd [18]: 1.79 L/kg; MRT inf [19]: 0.81 h; clearance [20]: 37.4 mL/min/kg; Tmax [21]: 0.5 h
37 | Cc1ccc(-c2ccc(-c3cccc4c3OS(=O)(=O)NC4)cc2)cc1 | 3.5 | – | 66 | –
38 | O=S1(=O)NCc2cccc(-c3ccccc3Oc3ccccc3)c2O1 | -0.5 | 1 | – | –
39 | O=S1(=O)NCc2cccc(-c3ccc(F)cc3)c2O1 | 36.5 | – | 48 | –
40 | Cc1ccc(-c2ccc(-c3cccc4c3OS(=O)(=O)NC4)c(F)c2)cc1 | 1.4 | – | 40.7 | –
41 | COc1ccc(-c2cccc3c2OS(=O)(=O)NC3)c(F)c1 | 8.2 | 10.3 | – | –
42 | Cc1ccc(-c2ccc(-c3cccc4c3OS(=O)(=O)NC4)cc2F)cc1 | 6.3 | 37.7 | – | –
43 | O=S1(=O)NCc2cccc(-c3ccc(-c4cccc(F)c4)cc3)c2O1 | 3.5 | – | 72.1 | –
44 | CC1NS(=O)(=O)Oc2c(-c3ccc(-c4ccc(F)cc4)cc3)cccc21 (stereo not drawn) | 3.7 | – | 59.6 | –
